Test results taken from US10517889B2, “Modulators of SMAD7 expression” (Ionis Pharmaceuticals, Inc., priority 2017, dated 2019).
Values joined by “and” are separate entries in the source; they are usually repeats but may differ in a detail not shown here. Equal values may be shown once.

Legend:
[1] = Pharmacokinetics: oligonucleotide concentration in the plasma on day 28 after oral gavage in beagle dogs (Example 12); assay type: in vivo; conditions: 200 mg oral gavage
Procedure: There were 4 animals per group.
Plasma concentrations of Ionis oligonucleotides were also measured on Day 28 at various time points.

[2] = Organ weights after subcutaneous administration in CD-1 mice (Example 6); assay type: in vivo; conditions: end of study, 50 mg/kg subcutaneously twice a week for 7 weeks
Procedure: (§1) Groups of 8-9 week old male CD-1 mice were injected subcutaneously twice a week for 7 weeks with 50 mg/kg of Ionis oligonucleotides (100 mg/kg/week dose). Each group contained 4 mice. One group of male CD-1 mice was injected subcutaneously twice a week for 7 weeks with PBS. Plasma was collected for analysis on day 28.
Ionis SMAD7 oligonucleotides that caused any changes in organ weights outside the expected range for antisense oligonucleotides were excluded from further studies.

[3] = Hematology assays after subcutaneous administration in CD-1 mice (Example 6); assay type: in vivo; parameters: RBC / Eosinophils / Monocytes: unit not given here; conditions: 50 mg/kg subcutaneous twice weekly for 7 weeks; for Basophils: n.d. = below detection levels
Procedure: as §1
Blood obtained from all mouse groups was measured by an ADVIA2120i hematology analyzer (Siemens, USA) for measurements of the various blood cells, as well as other hematology markers.

[4] = Plasma chemistry markers after subcutaneous administration in CD-1 mice (Example 6); assay type: in vivo; conditions: CD-1 mice plasma at day 46; 50 mg/kg subcutaneously twice a week for 7 weeks
Procedure: CD-1® mice (Charles River, Mass.) are a multipurpose mice model, frequently utilized for safety and efficacy testing. The mice were treated with Ionis human SMAD7 antisense oligonucleotides selected from studies described above and evaluated.
Groups of 8-9 week old male CD-1 mice were injected subcutaneously twice a week for 7 weeks with 50 mg/kg of Ionis oligonucleotides (100 mg/kg/week dose). Each group contained 4 mice. One group of male CD-1 mice was injected subcutaneously twice a week for 7 weeks with PBS. […]

[5] = Plasma chemistry markers after oral gavage in beagle dogs (Example 12); conditions: 200 mg oral gavage for 4 weeks, plasma at day 30
Procedure: The study was conducted to evaluate the tolerability and pharmacodynamics of select human SMAD7 antisense oligonucleotides in beagle dogs following 4 weeks of treatment. The dogs were administered oligonucleotides by oral gavage.
Groups of 24-25 week old male beagle dogs were administered 200 mg Ionis human SMAD7 oligonucleotide by oral gavage once a week for 4 weeks. There were 4 animals per group. A control group of dogs received oral administration of distilled water. Dogs were sacrificed on day 30 approximately 48 hours after the final dose and organs and plasma were harvested for further analysis.
To evaluate the effect of Ionis SMAD7 oligonucleotides on liver and kidney function, approximately 1.5 mL of blood samples were collected and put into tubes without anticoagulant for serum separation. The tubes were kept at room temperature for a minimum of 90 min and then centrifuged (approximately 3,000 rpm for 10 min) to obtain serum. Plasma levels of transaminases, albumin, bilirubin, and BUN were measured using an automated clinical chemistry analyzer (Toshiba 200FR Neo chemistry analyzer, Toshiba Co., Japan).

human SMAD7 mRNA [6] = experiment: Dose-dependent inhibition of human SMAD7 mRNA expression in A431 cells, oligonucleotide added without transfection (Example 5, Study 1); assay type: cell-based; conditions: approximately 48 hours; for IC50: SMAD7 mRNA
Procedure: The newly designed compounds disclosed herein are cEt-modified antisense oligonucleotides. […] The studies described below show a comparison of select cEt-modified gapmers and ION0736697/Mongersen.
A431 cells were plated in collagen I-coated 96-well plates in DMEM with […]. Immediately after plating, 0.08 μM, 0.25 μM, 0.74 μM, 2.22 μM, 6.67 μM, or 20.00 μM concentrations of antisense oligonucleotide were added. The plates were shaken briefly before incubating at 37° C. and 10% CO2. After a treatment period of approximately 48 hours, the cells were washed and lyzed and RNA on 384-well Pall plates with DNase I treatment. SMAD7 mRNA levels were measured by quantitative real-time PCR. Primer probe set RTS5062 was used to measure human SMAD7 mRNA levels. SMAD7 mRNA levels were adjusted according to total RNA content, as measured by RIBOGREEN®. Results are presented as percent inhibition of SMAD7 mRNA expression, relative to untreated control cells.
All Ionis oligonucleotides had greater potency than ION 736697/Mongersen.

human SMAD7 mRNA [7] = experiment: Dose-dependent inhibition of human SMAD7 mRNA expression in Hep3B cells (Example 3, Study 1 and 2); assay type: cell-based; conditions: electroporation; for % inhibition of SMAD7 mRNA expression: approximately 16 hours; for IC50: Study 2 (740-20000 nM)
Summary of the method: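 Hep3B cells, 20,000 per well, electroporated with antisense oligonucleotide at 0.31, 1.25, 5.00 or 20.00 μM (first series) or 0.74, 2.22, 6.67 or 20.00 μM (second series). After ~16 h, SMAD7 mRNA measured by RT-qPCR (RTS5062), normalised to RIBOGREEN total RNA. Percent inhibition vs untreated cells; IC50 derived.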

[8] = 740 nM, Study 2, relative to untreated control cells

| Substance | Organ weights, Kidneys [2] [g] | Organ weights, Liver [2] [g] | Organ weights, Spleen [2] [g] | Eosinophils [3] | Hematocrit [3] [%] | Hemoglobin [3] [g/dL] | Lymphocytes [3] [%] | MCH [3] [pg] | MCHC [3] [g/dL] | MCV [3] [fL] | Monocytes [3] | Neutrophils [3] [%] | RBC [3] | Reticulocytes [3] [%] | WBC [3] | platelets [3] | ALT [4] [IU/L] | AST [4] [IU/L] | Albumin [4] [g/dL] | BUN [4] [mg/dL] | other results |
| --- | --- | --- | --- | --- | --- | --- | --- | --- | --- | --- | --- | --- | --- | --- | --- | --- | --- | --- | --- | --- | --- |
| 790615 (CCAATGAGAATGCTTC; 3-10-3 cEt gapmer, further chemistry not given here) [compound 790615] | 0.6 | 2.0 | 0.2 | 2.5 | 46.2 | 15.2 | 82.8 | 14.7 | 32.8 | 44.8 | 5.0 | 9.7 | 10.3 | 3.5 | 10.5 10^3/μL | 1055.8 10^3/μL | 65 | 97 | 2.2 | 22 | Oligonucleotide concentration in the plasma on day 28 ([1]; 2 hr): 16.7 ng/mL; Oligonucleotide concentration in the plasma on day 28 ([1]; 4 hr): 4.8 ng/mL; Oligonucleotide concentration in the plasma on day 28 ([1]; 8 hr): 0.5 ng/mL; Oligonucleotide concentration in the plasma on day 28 ([1]; 24 hr): 0.0 ng/mL; Basophils [3]: 0.1 10^3/μL; ALT (% of control) [5]: 118 % of control; AST (% of control) [5]: 147 % of control; Albumin (% of control) [5]: 98 % of control; BUN (% of control) [5]: 108 % of control; Bilirubin (% of control) [5]: 102 % of control; % inhibition of SMAD7 mRNA expression (human SMAD7 mRNA [6]; 0.08 μM): 14%; % inhibition of SMAD7 mRNA expression (human SMAD7 mRNA [6]; 0.25 μM): 43%; % inhibition of SMAD7 mRNA expression (human SMAD7 mRNA [6]; 0.74 μM): 55%; % inhibition of SMAD7 mRNA expression (human SMAD7 mRNA [6]; 2.22 μM): 63%; % inhibition of SMAD7 mRNA expression (human SMAD7 mRNA [6]; 6.67 μM): 70%; % inhibition of SMAD7 mRNA expression (human SMAD7 mRNA [6]; 20.00 μM): 75%; IC50 (human SMAD7 mRNA [6]): 0.7 µM |
| 829994 (GGAGGCAGGGCCGCGA; 3-10-3 cEt gapmer, further chemistry not given here) [compound 829994] | 0.7 | 2.6 | 0.3 | 1.3 | 36.6 | 12.0 | 79.4 | 15.5 | 32.7 | 47.3 | 3.0 | 16.4 | 7.7 | 3.7 | 5.0 10^3/μL | 841.3 10^3/μL | 65 | 90 | 2.9 | 25 | % inhibition of SMAD7 mRNA expression (human SMAD7 mRNA [7]; [8]): 25%; % inhibition of SMAD7 mRNA expression (human SMAD7 mRNA [7]; 2220 nM, Study 2): 54%; % inhibition of SMAD7 mRNA expression (human SMAD7 mRNA [7]; 6670.0 nM, Study 2): 69%; % inhibition of SMAD7 mRNA expression (human SMAD7 mRNA [7]; 20000.0 nM, Study 2): 80%; IC50 (human SMAD7 mRNA [7]): 1 µM |
| 830037 (antisense CTATTGGCTGATCTGG; 3-10-3 cEt gapmer, further chemistry not given here) [compound 830037] | – | – | – | – | – | – | – | – | – | – | – | – | – | – | – | – | – | – | – | – | % inhibition of SMAD7 mRNA expression (human SMAD7 mRNA [7]; [8]): 30%; % inhibition of SMAD7 mRNA expression (human SMAD7 mRNA [7]; 2220 nM, Study 2): 56%; % inhibition of SMAD7 mRNA expression (human SMAD7 mRNA [7]; 6670.0 nM, Study 2): 70%; % inhibition of SMAD7 mRNA expression (human SMAD7 mRNA [7]; 20000.0 nM, Study 2): 87%; IC50 (human SMAD7 mRNA [7]): 3 µM; % inhibition of SMAD7 mRNA expression (human SMAD7 mRNA [6]; 0.08 μM): 10%; % inhibition of SMAD7 mRNA expression (human SMAD7 mRNA [6]; 0.25 μM): 31%; % inhibition of SMAD7 mRNA expression (human SMAD7 mRNA [6]; 0.74 μM): 29%; % inhibition of SMAD7 mRNA expression (human SMAD7 mRNA [6]; 2.22 μM): 42%; % inhibition of SMAD7 mRNA expression (human SMAD7 mRNA [6]; 6.67 μM): 61%; % inhibition of SMAD7 mRNA expression (human SMAD7 mRNA [6]; 20.00 μM): 67%; IC50 (human SMAD7 mRNA [6]): 3.4 µM |
| 830121 (AGAATCAAGCCCTGGC; 3-10-3 cEt gapmer, further chemistry not given here) [compound 830121] | 0.6 | 2.4 | 0.2 | 3.5 | 40.4 | 13.6 | 75.3 | 15.3 | 33.6 | 45.5 | 5.1 | 15.8 | 8.9 | 4.5 | 10.1 10^3/μL | 765.0 10^3/μL | 198 | 151 | 1.9 | 21 | % inhibition of SMAD7 mRNA expression (human SMAD7 mRNA [7]; [8]): 37% and 54%; % inhibition of SMAD7 mRNA expression (human SMAD7 mRNA [7]; 2220 nM, Study 2): 48% and 63%; % inhibition of SMAD7 mRNA expression (human SMAD7 mRNA [7]; 6670.0 nM, Study 2): 69% and 79%; % inhibition of SMAD7 mRNA expression (human SMAD7 mRNA [7]; 20000.0 nM, Study 2): 85% and 86%; IC50 (human SMAD7 mRNA [7]): < 0.7 µM; Basophils [3]: 0.3 10^3/μL; % inhibition of SMAD7 mRNA expression (human SMAD7 mRNA [6]; 0.08 μM): 11%; % inhibition of SMAD7 mRNA expression (human SMAD7 mRNA [6]; 0.25 μM): 18%; % inhibition of SMAD7 mRNA expression (human SMAD7 mRNA [6]; 0.74 μM): 27%; % inhibition of SMAD7 mRNA expression (human SMAD7 mRNA [6]; 2.22 μM): 21%; % inhibition of SMAD7 mRNA expression (human SMAD7 mRNA [6]; 6.67 μM): 35%; % inhibition of SMAD7 mRNA expression (human SMAD7 mRNA [6]; 20.00 μM): 44%; IC50 (human SMAD7 mRNA [6]): > 20 µM |
